Assay results from patent EP4741383A1, “COMPOUND AND USE THEREOF AS ANTI-CANCER DRUG” (Tyligand Bioscience (Shanghai) Limited, priority 2023, dated 2025).

Key:
Format in all cases: in vitro ADME
CYP1A2 = molecular target: T1, CYP1A2 (Homo sapiens, UniProt P05177); test: CYP450 inhibition in human liver microsomes, CYP1A2; settings: pH 7.4, read-out: % CYP inhibition @ 10 µM 1A2
T1 construct: tissue Corning or Xenotech; host or cells: human liver microsomes
T1 sequence (P05177 1-516): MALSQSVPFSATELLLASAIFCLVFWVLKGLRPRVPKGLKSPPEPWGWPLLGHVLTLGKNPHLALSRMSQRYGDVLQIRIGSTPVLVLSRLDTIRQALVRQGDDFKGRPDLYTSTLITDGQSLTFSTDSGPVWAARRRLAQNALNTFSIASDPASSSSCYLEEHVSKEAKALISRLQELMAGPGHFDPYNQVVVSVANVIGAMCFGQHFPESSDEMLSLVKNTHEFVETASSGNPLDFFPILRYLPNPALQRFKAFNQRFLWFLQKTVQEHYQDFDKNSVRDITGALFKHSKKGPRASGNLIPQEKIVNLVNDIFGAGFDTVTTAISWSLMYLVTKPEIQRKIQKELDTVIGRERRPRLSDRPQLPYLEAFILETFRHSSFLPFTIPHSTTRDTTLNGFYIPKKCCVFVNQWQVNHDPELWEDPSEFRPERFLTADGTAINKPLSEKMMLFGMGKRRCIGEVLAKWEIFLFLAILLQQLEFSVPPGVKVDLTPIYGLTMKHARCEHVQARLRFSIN
Text: (§1) According to standard methods in the field for the study of cytochrome P450 enzyme systems, such as the method described in Kerns, Edward H. and Di Li et al., Drug-like Properties: Concepts, Structure Design and Methods: from ADME to Toxicity Optimization (2008), San Diego, Academic Press, and Lin, Tong et al., In Vitro Assessment of Cytochrome P450 Inhibition: Strategies for Increasing LC/MS-Based Assay Throughput Using a One-Point IC50 Method and Multiplexing High-Performance Liquid Chromatography (J. Pharm. Sci. 2007, 96 (9), 2485). The inhibitory effect of the disclosed compounds on the cytochrome P450 enzyme system was similarly examined below.
(§2) Human liver microsomes were purchased from Corning or Xenotech. The test compounds were evaluated by detecting the metabolism of substrates for different Cyp450 isoforms by human liver microsomes.
(§3) 0.1 M potassium phosphate buffer (K-buffer, pH 7.4) was pre-warmed.
(§4) 100 mM K-buffer was prepared by mixing 9.5 mL of stock solution A (1 M potassium dihydrogen phosphate, prepared by dissolving 136.5 g of potassium dihydrogen phosphate in 1 L of Milli-Q water) with 40.5 mL of stock solution B (1 M potassium hydrogen phosphate, prepared by dissolving 174.2 g of potassium hydrogen phosphate in 1 L of Milli-Q water). The total volume was adjusted to 500 mL with Milli-Q water, and the buffer was titrated to pH 7.4 using KOH or H3PO4.
(§5) Test compound solution and specific inhibitor solution (400× dilution) were prepared in a 96-well plate. For the test compound, 8 µL of 10 mM test compound was transferred into 12 µL of ACN. For specific inhibitors of CYP1A2, CYP2C9, and CYP2D6: 12 µL of 1 mM α-naphthoflavone, 10 µL of 40 mM sulfaphenazole, 10 µL of 10 mM quinidine, and 8 µL of DMSO were mixed. For specific inhibitors of CYP3A4, CYP2B6, CYP2C8, and CYP2C19: 8 µL of DMSO stock solution was added to 12 µL of ACN.
(§6) A 4× diluted NADPH solution was prepared by dissolving 66.7 mg of NADPH in 10 mL of 0.1 M K-buffer (pH 7.4). […]

CYP2C19 = molecular target: T2, CYP2C19 (Homo sapiens, UniProt P33261); test: CYP450 inhibition in human liver microsomes, CYP2C19; settings: pH 7.4, read-out: % CYP inhibition @ 10 µM 2C19
T2 construct: tissue Corning or Xenotech; host or cells: human liver microsomes
T2 sequence (P33261 whole entry): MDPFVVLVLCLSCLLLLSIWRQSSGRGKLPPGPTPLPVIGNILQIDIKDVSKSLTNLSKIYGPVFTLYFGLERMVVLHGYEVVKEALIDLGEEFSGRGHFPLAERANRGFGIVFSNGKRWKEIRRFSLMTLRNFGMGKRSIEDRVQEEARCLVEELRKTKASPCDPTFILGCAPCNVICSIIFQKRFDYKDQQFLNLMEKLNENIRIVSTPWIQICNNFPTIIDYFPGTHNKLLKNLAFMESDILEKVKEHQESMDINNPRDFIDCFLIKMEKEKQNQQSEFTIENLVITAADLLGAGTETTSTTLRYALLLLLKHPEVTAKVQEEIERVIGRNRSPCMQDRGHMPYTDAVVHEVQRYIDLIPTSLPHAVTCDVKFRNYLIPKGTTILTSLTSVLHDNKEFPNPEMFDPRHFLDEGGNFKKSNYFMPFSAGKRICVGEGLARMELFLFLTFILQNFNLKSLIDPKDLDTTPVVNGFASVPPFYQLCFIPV
Text: as §1, §2, §3, §4, §5, §6

CYP2C9 = molecular target: T3, CYP2C9 (Homo sapiens, UniProt P11712); test: CYP450 inhibition in human liver microsomes, CYP2C9; settings: pH 7.4, read-out: % CYP inhibition @ 10 µM 2C9
T3 construct: tissue Corning or Xenotech; host or cells: human liver microsomes
T3 sequence (P11712 whole entry): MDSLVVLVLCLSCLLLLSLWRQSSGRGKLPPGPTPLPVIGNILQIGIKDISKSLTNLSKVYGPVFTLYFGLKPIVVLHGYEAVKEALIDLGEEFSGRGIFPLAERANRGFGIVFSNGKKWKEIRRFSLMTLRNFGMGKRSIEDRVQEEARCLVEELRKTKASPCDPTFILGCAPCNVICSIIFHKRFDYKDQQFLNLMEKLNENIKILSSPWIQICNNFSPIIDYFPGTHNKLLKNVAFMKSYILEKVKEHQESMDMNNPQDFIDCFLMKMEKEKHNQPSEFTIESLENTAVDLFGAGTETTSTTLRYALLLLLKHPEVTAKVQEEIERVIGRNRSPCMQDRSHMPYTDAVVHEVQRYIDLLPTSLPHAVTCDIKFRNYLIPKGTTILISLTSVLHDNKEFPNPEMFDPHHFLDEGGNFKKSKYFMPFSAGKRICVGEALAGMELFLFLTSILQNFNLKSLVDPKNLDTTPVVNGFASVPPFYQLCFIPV
Text: as §1, §2, §3, §4, §5, §6

Structure (SMILES): O=C(Nc1ccc(-c2cc3cc(F)c(-c4nnn[nH]4)cc3n2C2CCC2)cc1)C(=O)Nc1ccc(N2CCC(CO)CC2)cc1 [Example 23]
- inhibition at 10 min, 10 µM (CYP1A2): 17.1%
- inhibition at 45 min, 10 µM (CYP2C19): 1.78%
- inhibition at 10 min, 10 µM (CYP2C9): -3.32%

Structure (SMILES): CC1(n2c(-c3ccc(NC(=O)C(=O)Nc4ccc(N5CCC6(CCOC6)CC5)cc4)cc3)cc3cc(F)c(-c4nnn[nH]4)cc32)CCC1 [Example 68]
- inhibition at 10 min, 10 µM (CYP1A2): 11.4%
- inhibition at 45 min, 10 µM (CYP2C19): 13.5%
- inhibition at 10 min, 10 µM (CYP2C9): 6.51%

Structure (SMILES): O=C(Nc1ccc(-c2cc3cc(F)c(-c4nnn[nH]4)cc3n2C2CCC2)cc1)C(=O)Nc1ccc(N2CCC3(CCOC3)CC2)cc1 [Example 67]
- inhibition at 10 min, 10 µM (CYP1A2): 9.47%
- inhibition at 45 min, 10 µM (CYP2C19): 13.9%
- inhibition at 10 min, 10 µM (CYP2C9): 7.84%
